The subject of this assay is transmembrane efflux pumps. Put plainly: Ethidium bromide accumulation assay. It counts as cell-based, S. aureus MSSA 2. The conditions noted are these: compared with comparator CCCP; concentrations 25–100 μM. An excerpt:
The application of antibiotics often leads to oxidative stress in bacteria, which triggers the efflux pump systems that contribute to antimicrobial resistance.[34] Therefore, modulation of the efflux system has been proposed as another plausible target of derivatives. The efflux pump inhibitor carbonyl cyanide 3-chlorophenylhydrazone (CCCP) was used as a comparator in our assay. Its action destroys the proton-motive force at the membrane so that the efflux pump cannot transport substrates out of the cell. One such universal substrate is ethidium bromide, the accumulation of which in the cell can be measured using fluorescence.
The accumulation assay was performed according to previously published methods with minor modifications.[15],[42] Briefly, a bacterial culture of S. aureus MSSA 2 cultured overnight in the presence of colistin (4 mg/L) to induce oxidative stress and activate efflux system[34] was diluted in PBS to OD600 nm = 0.6. The suspension was centrifuged (13,000 × g; 3 min), resuspended in fresh PBS, and distributed into the wells of a black 96-well microtiter plate (ThermoFisher Scientific). Samples were diluted with EtBr solution (4 μg/mL). 50 μL of the mixture was added to 50 μL of the bacterial suspension. The reaction was monitored using SpectraMax iD5Multi-Mode Microplate Reader (ex/em = 530/600 nm) every 60 s for 60 min.

Regarding `N#CC(C#N)=NNc1cccc(Cl)c1` [CCCP, carbonyl cyanide 3-chlorophenylhydrazone, reference compound], the “efflux inhibition (ethidium bromide accumulation), in words” value was “increases the accumulation of ethidium bromide”.

The record behind these values is publication PMC11325505, “Nitrogen-Containing Flavonoids—Preparation and Biological Activity” (ACS Omega, 2024).
